Measured values taken from patent US20250296928A1, “A SYNTHESIS SCHEME AND PROCEDURES FOR PREPARING A SIK3 INHIBITOR AND INTERMEDIATES THEREOF” (iOmx Therapeutics AG, priority 2021, published 2025).
Each block holds one molecule with its values, some of them ahead of it.

How the values were obtained:
[1] = Screening PK in mice, 30 mg/kg po; format: in vivo
SIK3 = target: T1, SIK3 (Homo sapiens, UniProt Q9Y2K2); assay: Radiometric protein kinase assay (33PanQinase Activity Assay), SIK3; format: biochemical
T1 construct: purchased ProQuinase, Freiburg, Germany
T1 sequence (Q9Y2K2 whole entry): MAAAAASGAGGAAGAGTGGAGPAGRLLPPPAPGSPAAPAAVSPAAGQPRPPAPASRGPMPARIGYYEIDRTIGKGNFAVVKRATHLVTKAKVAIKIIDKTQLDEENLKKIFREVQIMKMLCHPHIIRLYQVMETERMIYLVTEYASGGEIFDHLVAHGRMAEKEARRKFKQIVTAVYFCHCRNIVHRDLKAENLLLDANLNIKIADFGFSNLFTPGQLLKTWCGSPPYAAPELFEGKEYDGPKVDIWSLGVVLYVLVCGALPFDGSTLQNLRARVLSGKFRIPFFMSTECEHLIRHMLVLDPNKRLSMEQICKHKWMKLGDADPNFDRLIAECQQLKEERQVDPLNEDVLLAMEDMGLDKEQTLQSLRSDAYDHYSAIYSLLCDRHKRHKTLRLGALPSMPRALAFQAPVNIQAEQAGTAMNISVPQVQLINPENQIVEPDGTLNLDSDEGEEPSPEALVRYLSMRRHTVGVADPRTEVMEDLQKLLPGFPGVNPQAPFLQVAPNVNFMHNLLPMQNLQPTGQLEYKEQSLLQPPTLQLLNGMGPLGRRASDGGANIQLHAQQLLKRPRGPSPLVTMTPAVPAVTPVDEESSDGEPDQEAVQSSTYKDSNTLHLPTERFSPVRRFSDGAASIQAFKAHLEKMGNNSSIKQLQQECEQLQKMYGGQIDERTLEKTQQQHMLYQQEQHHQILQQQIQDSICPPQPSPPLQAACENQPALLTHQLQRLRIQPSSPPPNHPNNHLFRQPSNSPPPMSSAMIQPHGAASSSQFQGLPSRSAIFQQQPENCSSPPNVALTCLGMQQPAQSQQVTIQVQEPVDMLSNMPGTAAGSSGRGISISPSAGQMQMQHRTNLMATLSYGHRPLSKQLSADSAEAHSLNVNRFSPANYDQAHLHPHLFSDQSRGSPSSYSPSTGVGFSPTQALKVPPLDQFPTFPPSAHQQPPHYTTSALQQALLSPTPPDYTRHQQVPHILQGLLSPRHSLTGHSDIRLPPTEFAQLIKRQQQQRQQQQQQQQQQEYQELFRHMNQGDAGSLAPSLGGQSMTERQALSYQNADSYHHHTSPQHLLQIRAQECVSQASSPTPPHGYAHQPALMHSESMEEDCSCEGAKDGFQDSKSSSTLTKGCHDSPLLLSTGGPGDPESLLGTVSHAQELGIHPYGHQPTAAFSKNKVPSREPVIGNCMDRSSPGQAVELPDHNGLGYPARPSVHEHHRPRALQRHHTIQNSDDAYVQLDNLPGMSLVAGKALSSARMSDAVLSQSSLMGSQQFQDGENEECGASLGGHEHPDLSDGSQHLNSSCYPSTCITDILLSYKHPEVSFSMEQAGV
Description: (§1) Incorporation of 33Pi was determined with a microplate scintillation counter (Microbeta, Wallac).

HDAC4 phosphorylation = assay: TNF-induced phosphorylation of HDAC4; format: cell-based; details: for Inhibition of HDAC4 phosphorylation: TNF-induced; for Inhibition of HDAC phosphorylation: summary Table 4.3
NFKB activity (PANC-1) = assay: TNF-induced NFKB activity in PANC-1 cells; format: cell-based
[2] = Human plasma-protein binding; format: in vitro ADME; details: for fraction unbound: human, plasma
[3] = Full pharmacokinetic study with oral administration in mice; format: in vivo
[4] = Murine plasma protein binding; format: in vitro ADME, mouse
[5] = Human liver microsomal stability; format: in vitro ADME
[6] = Mouse liver microsomal stability; format: in vitro ADME
[7] = Mouse hepatocyte stability; format: in vitro ADME
[8] = Human hepatocyte stability; format: in vitro ADME; details: for clearance classification: from human hepatocyte stability
NFKB activity (MC38) = assay: TNF-induced NFKB activity in MC38 cells; format: cell-based, mouse; details: for Inhibition of NFKB activity: summary Table 4.3, cell line not stated; for Inhibition of NFKB activity (MC38): TNF-induced, 10 ng/ml rMuTNF
Description: TNF-induced NFKB activity in MC38 cells was measured analogously to the assay in PANC-1 cells described in connection with Example 9.2 (Table 9C) of WO2020/083926), except that 10 ng/ml rMuTNF was used.

[9] = tested on: MC38 syngeneic tumour model; assay: MC38 syngeneic tumour model, comparative study E9 versus dasatinib (FIG. 5); format: in vivo, mice; details: 25 mg/kg BID
SIK2 = target: T2, SIK2 (Homo sapiens, UniProt Q9H0K1); assay: Radiometric protein kinase assay (33PanQinase Activity Assay), SIK2; format: biochemical; details: ATP 1.0 μM
T2 construct: purchased ProQuinase, Freiburg, Germany
T2 sequence (Q9H0K1 whole entry): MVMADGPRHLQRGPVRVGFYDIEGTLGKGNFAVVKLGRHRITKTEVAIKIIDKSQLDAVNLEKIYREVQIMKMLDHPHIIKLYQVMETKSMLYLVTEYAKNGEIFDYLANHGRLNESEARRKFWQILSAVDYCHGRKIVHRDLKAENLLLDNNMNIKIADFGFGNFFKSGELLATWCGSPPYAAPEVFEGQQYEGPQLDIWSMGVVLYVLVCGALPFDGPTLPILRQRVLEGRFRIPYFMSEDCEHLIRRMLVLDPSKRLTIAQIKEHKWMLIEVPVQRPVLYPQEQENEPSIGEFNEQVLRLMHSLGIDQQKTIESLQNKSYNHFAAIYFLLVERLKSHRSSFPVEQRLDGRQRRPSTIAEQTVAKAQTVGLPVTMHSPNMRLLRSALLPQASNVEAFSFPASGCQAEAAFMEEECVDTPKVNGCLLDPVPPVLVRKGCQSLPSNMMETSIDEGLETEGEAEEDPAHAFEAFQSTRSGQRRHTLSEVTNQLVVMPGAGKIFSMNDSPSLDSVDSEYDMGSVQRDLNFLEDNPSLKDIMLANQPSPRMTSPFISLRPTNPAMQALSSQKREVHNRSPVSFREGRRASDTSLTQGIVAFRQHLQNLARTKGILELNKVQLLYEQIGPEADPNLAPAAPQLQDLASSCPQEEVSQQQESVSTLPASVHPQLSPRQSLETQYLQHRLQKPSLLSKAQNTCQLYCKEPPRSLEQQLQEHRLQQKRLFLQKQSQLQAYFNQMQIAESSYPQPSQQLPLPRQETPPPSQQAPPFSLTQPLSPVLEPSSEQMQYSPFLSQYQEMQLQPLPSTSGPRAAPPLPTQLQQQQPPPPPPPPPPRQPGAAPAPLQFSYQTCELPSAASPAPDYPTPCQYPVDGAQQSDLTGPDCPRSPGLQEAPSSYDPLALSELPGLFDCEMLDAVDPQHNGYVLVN
Description: as §1

in vitro = details: dog, MDCK
P-gp (MDR1) = assay: Permeability and efflux in MDCK-MDR1 cells; format: in vitro ADME; details: dog
MC38 cells = assay: MC38 syngeneic tumour model, in-vivo anti-cancer efficacy
MDCK-wild type cells = assay: Permeability and efflux in MDCK-wild type cells
MDCK-MDR1 cells (P-gp) = assay: Permeability and efflux in MDCK-MDR1 cells; format: in vitro ADME
[10] = mice, 30 mg/kg po, Free plasma concentration
[11] = mice, 30 mg/kg po, Total plasma concentration
[12] = Total plasma concentration at 30 mg/kg p.o dose, C7 = 1x
[13] = mouse, plasma, mice, 30 mg/kg po, Free

Free plasma concentration after 6 h ([1]; 30 mg/kg po, 6 h, free): 8 nM
IC50 (SIK3; ATP 1.0 μM): ~60 nM
SMILES: Cc1nc(Nc2ncc(C(=O)Nc3c(C)csc3Cl)s2)cc(N2CCN(C)CC2)n1 [Compound D9]
Inhibition of HDAC4 phosphorylation (HDAC4 phosphorylation): +
Inhibition of NFKB activity (PANC-1) (NFKB activity (PANC-1)): +

Cmax after 2 h ([1]; 30 mg/kg po, 2 h): 56 ng/mL
Free plasma concentration after 6 h ([1]; 30 mg/kg po, 6 h, free): 3 nM
Plasma concentration after 6 h ([1]; 30 mg/kg po, 6 h, total): 29 nM
Human plasma-protein binding: Percentage unbound [2]: 7%
Tmax ([3]; mice, 30 mg/kg po, Free): 30 min
t1/2 ([3]; mice, 30 mg/kg po, Free): 144 min
Cmax [3, 10]: 10.7 ng/mL
% AUCextrap ([3]; mice, 30 mg/kg po, Total): 14%
AUCinf ([3]; mice, 30 mg/kg po, Total): 697 nM·h
AUClast ([3]; mice, 30 mg/kg po, Total): 589 nM·h
Tmax ([3]; mice, 30 mg/kg po, Total): 30 min
t1/2 ([3]; mice, 30 mg/kg po, Total): 144 min
Cmax [3, 11]: 99 ng/mL
Murine plasma protein binding: Percentage unbound ([4]; murine plasma): 11%
Human liver microsomal stability: Half-life ([5]; human liver microsomes): 58 min
Human liver microsomal stability: Intrinsic clearance ([5]; human liver microsomes): 24 µL/min/mg
Mouse liver microsomal stability: Half-life ([6]; mouse liver microsomes): 62 min
Mouse liver microsomal stability: Intrinsic clearance ([6]; mouse liver microsomes): 22 µL/min/mg
SMILES: Cc1nc(Nc2ncc(C(=O)Nc3c(Cl)ccnc3C)s2)cc(N2CCN(CCO)CC2)n1 [Compound B3]

clearance classification ([7]; from mouse hepatocyte stability): medium clearance drug
half-life ([7]; mouse hepatocytes): ~65 min
improvement for free serum concentration over C7 ([1]; 30 mg/Kg po, free): 2 fold
improvement for total serum concentration over C7 ([1]; 30 mg/Kg po, total): 4.5 fold
clearance classification [8]: high clearance drugs
half-life ([8]; human hepatocytes): ~25 min
fraction unbound ([2]; read-out: Human plasma-protein binding: Percentage unbound): 0.01
fraction unbound ([2]; read-out: human plasma protein binding): < 0.05
AUC0-last (nM*h), relative to C7 [3, 12]: 8.2x
C max (ng/ml), relative to C7 [3, 12]: 5.6x
MRT0-last (h), relative to C7 [3, 12]: 1.2x
t1/2 (h), relative to C7 [3, 12]: 2x
% AUCextrap ([3]; mice, 30 mg/kg po, Free): 0.49%
MRTlast ([3]; mice, 30 mg/kg po, Free): 203 min
Rsq ([3]; mice, 30 mg/kg po, Free): 0.84
Tmax ([3]; mice, 30 mg/kg po, Free): 15 min
t1/2 ([3]; mice, 30 mg/kg po, Free): 166 min
% AUCextrap ([3]; mice, 30 mg/kg po, Total): 0.49%
Rsq ([3]; mice, 30 mg/kg po, Total): 0.84
AUC(0-inf) [3, 13]: 0.24 µM·h
AUC(0-t) [3, 13]: 0.239 µM·h
Cmax ([3]; mouse, mice, 30 mg/kg po, Free plasma concentration, read-out: Cmax): 66.9 ng/mL
SIK3 IC50 (nM), relative to C7 (SIK3; relative to C7 = 1x): 0.3x
potency against SIK3 improved over C7 and D9 (SIK3; relative to C7 and D9): 2-3 times
fraction unbound ([4]; mouse plasma): < 0.05
fraction unbound at 4 h ([4]; mouse, murine plasma, read-out: Murine plasma protein binding: Percentage unbound): 0.01
IC50 (SIK2): < 10 nM
clearance classification ([5]; from human liver microsomal stability): high clearance drugs
half-life ([5]; human liver microsomes): ~10 min
microsomal CLint ([5]; human liver microsomes, read-out: Human liver microsomal stability: Intrinsic clearance): 130 to 150 µL/min/mg
clearance classification ([6]; from mouse liver microsomal stability): high clearance drugs
half-life ([6]; mouse liver microsomes): ~10 min
microsomal CLint ([6]; mouse liver microsomes, read-out: Mouse liver microsomal stability: Intrinsic clearance): 130 to 150 µL/min/mg
Papp A→B (in vitro): 10 ×10⁻⁶ cm/s
efflux ratio (in vitro): 20 to 30
Papp A→B (P-gp (MDR1)): 5 ×10⁻⁶ cm/s
SMILES: Cc1nc(Nc2ncc(C(=O)Nc3c(CF)csc3Cl)s2)cc(N2CCN(C)CC2)n1 [Compound E9, N-(2-chloro-4-(fluoromethyl)thiophen-3-yl)-2-((2-methyl-6-(4-methylpiperazin-1-yl)pyrimidin-4-yl)amino)thiazole-5-carboxamide]
Inhibition of NFKB activity (NFKB activity (MC38)): ++
average TGI [9]: 72%
Inhibition of HDAC4 phosphorylation (HDAC4 phosphorylation): ++
Inhibition of HDAC phosphorylation (HDAC4 phosphorylation): ++
Body weight increase (MC38 cells; 25 mg/Kg, BID, po): 16.8%
Tumour growth inhibition (MC38 cells; 25 mg/Kg, BID, po): 74%
Body weight increase (MC38 cells; 50 mg/Kg, BID, po): 18.7%
Tumour growth inhibition (MC38 cells; 50 mg/Kg, BID, po): 69%
treatment related side effects and clinical signs (MC38 cells; administered orally): no direct treatment related side effects and clinical signs

SMILES: Cc1nc(Nc2ncc(C(=O)Nc3c(C)csc3Cl)s2)cc(N2CCN(CCO)CC2)n1 [Compound C7]
Mouse hepatocyte stability: Half-life ([7]; mouse hepatocytes): 50 min
Mouse hepatocyte stability: Intrinsic clearance ([7]; mouse hepatocytes): 28 µL/min/mg
Mean Papp A > B (MDCK-wild type cells): 9 10^−6 cm/s
clearance classification [8]: medium-to-high clearance drugs
Human hepatocyte stability: Half-life ([8]; human hepatocytes): 54 min
Human hepatocyte stability: Intrinsic clearance ([8]; human hepatocytes): 26 µL/min/mg
half-life in the presence of human hepatocytes ([8]; human hepatocytes): approx. 1 h
Human plasma-protein binding: Percentage unbound [2]: 2%
Human plasma-protein binding: Recovery at 4 h ([2]; 4 h): 75%
% AUCextrap ([3]; mice, 30 mg/kg po, Free): 11.24%
AUCinf ([3]; mice, 30 mg/kg po, Free): 58.79 nM·h
AUClast ([3]; mice, 30 mg/kg po, Free): 52.07 nM·h
MRTlast ([3]; mice, 30 mg/kg po, Free): 165 min
Rsq ([3]; mice, 30 mg/kg po, Free): 0.99
Tmax ([3]; mice, 30 mg/kg po, Free): 120 min
t1/2 ([3]; mice, 30 mg/kg po, Free): 85.2 min
Cmax [3, 10]: 21.34 ng/mL
% AUCextrap ([3]; mice, 30 mg/kg po, Total): 11.24%
AUCinf ([3]; mice, 30 mg/kg po, Total): 1,306.48 nM*h
AUClast ([3]; mice, 30 mg/kg po, Total): 1,157.10 nM*h
MRTlast ([3]; mice, 30 mg/kg po, Total): 165 min
Rsq ([3]; mice, 30 mg/kg po, Total): 0.99
Tmax ([3]; mice, 30 mg/kg po, Total): 120 min
t1/2 ([3]; mice, 30 mg/kg po, Total): 85.2 min
Cmax [3, 11]: 474.16 ng/mL
Murine plasma protein binding: Percentage unbound ([4]; murine plasma): 3%
Murine plasma protein binding: Recovery at 4 h ([4]; murine plasma, 4 h): 87%
Inhibition of NFKB activity (MC38) (NFKB activity (MC38)): +
Inhibition of NFKB activity (NFKB activity (MC38)): +
Human liver microsomal stability: Half-life ([5]; human liver microsomes): 10 min
Human liver microsomal stability: Intrinsic clearance ([5]; human liver microsomes): 142 µL/min/mg
Inhibition of HDAC4 phosphorylation (HDAC4 phosphorylation): +
Inhibition of HDAC phosphorylation (HDAC4 phosphorylation): +
Inhibition of NFKB activity (PANC-1) (NFKB activity (PANC-1)): +
Mouse liver microsomal stability: Half-life ([6]; mouse liver microsomes): 13 min
Mouse liver microsomal stability: Intrinsic clearance ([6]; mouse liver microsomes): 110 µL/min/mg
Mean Papp A > B (MDCK-MDR1 cells (P-gp)): 2 10^−6 cm/s
Body weight increase (MC38 cells; 100 mg/Kg, BID, po): 1.0%
Non-treatment related death (MC38 cells; 100 mg/Kg, BID, po): 3/16
Tumour growth inhibition (MC38 cells; 100 mg/Kg, BID, po): 78%

Cmax ([1]; mouse, plasma, 30 mg/kg po, 2 h): 550 ng/mL
SMILES: Cc1nc(Nc2ncc(C(=O)Nc3c(C)cccc3Cl)s2)cc(N2CCN(CCO)CC2)n1 [Compound A8, N-(2-chloro-6-methylphenyl)-2-[[6-[4-(2-hydroxyethyl)-1-piperazinyl]-2-methyl-4-pyrimidinyl]amino]-5-thiazolecarboxamide]
Inhibition of NFKB activity (MC38) (NFKB activity (MC38)): +
Inhibition of HDAC4 phosphorylation (HDAC4 phosphorylation): ++
Inhibition of NFKB activity (PANC-1) (NFKB activity (PANC-1)): +
